Test results published in patent US20080220066A1 (HENDERSON MORLEY PLC, priority 2005, published 2008).
≈ marks a conversion by molar mass, not a printed value. Like-named read-outs stand apart in the source and are kept apart here.

Columns and labels:
[1] = tested on: feline herpesvirus
[2] = tested on: Adenovirus; assay: 50% plaque inhibitory concentration, Adenovirus; details: unidentified adenovirus, A549, read-out: Furosemide IC50
[3] = tested on: Herpes simplex virus (HSV); assay: HSV standard plaque inhibition assay; format: cell-based; details: for IC50: Herpes simplex virus; for ICVT activity: HSV plaque inhibition assay
Description: Using Herpes simplex virus (HSV), 50% plaque inhibitory dose (1D50) were established using the standard plaque inhibition assay.

[4] = for Flux: Q24 divided by 24
[5] = tested on: Herpes simplex virus (HSV); assay: HSV virus yield (infectious virus particle production); format: cell-based; details: for HSV yield: solvent as listed per compound, Torasemide at 90 μg/ml

NS(=O)(=O)c1cc(C(=O)O)c(NCc2ccco2)cc1Cl [Furosemide, 5-(Aminosulfonyl)-4-chloro-2-[(2-furanylmethyl)amino]benzoic acid]
Virus particles per cell ([1]; each drug at its IC50, alone or both combined, No Drug 50): 0.25 | production of infectious virus reduced by ([1]; each drug at its IC50, individually or in combination): 99.5% | IC50 [2]: 440 ± 114 µg/mL (≈ 1330 µM) | IC50 ([3]; BHK-21, read-out: Furosemide IC50, host cell BHK21): 800 µg/mL (≈ 2420 µM) | ICVT activity [3]: potent ICVT activity | IC50 ([3]; read-out: Furosemide IC50, host cell Vero): 1000 µg/mL (≈ 3020 µM) | maximum concentrations observed in the receptor phase ([4]; 40:40:20 gels): 543.60 µg/mL | Release date ([4]; Ampule Formulation): 667 μg cm^−2 h^0.5 | Q24 ([4]; Ampule Formulation (8% HPC)): 2724 μg cm^−2 | Flux ([4]; Ampule Formulation): 111 μg cm^−2 h^−1 | % applied dose ([4]; Gel 1:1, pH 7): 17.9% | Release Rate ([4]; Gel 1:1, pH 7): 7.18 μg cm^−2 h^0.5 | Flux ([4]; Gel 1:1, pH 7): 2.69 μg cm^−2 h^−1 | Q24 ([4]; Gel 1:1, prototype 40:40:20 mix, pH 7, 24 h): 64.63 μg cm^−2 | Q24 ([4]; Gel 14:1 (F:D), prototype 40:40:20 mix, […] 981NF, pH 5, 24 h): 543.60 μg cm^−2 | Flux ([4]; Gel 14:1, pH 5): 22.65 μg cm^−2 h^−1 | % applied dose ([4]; Gel 14:1, pH 5, assuming 2 g of gel in donor): 8.7% | Release Rate ([4]; Gel 14:1, pH 5, gradient of square root of time plot): 124.51 μg cm^−2 h^0.5 | % applied dose ([4]; Gel 14:1, pH 7): 5.9% | Release Rate ([4]; Gel 14:1, pH 7): 77.482 μg cm^−2 h^0.5 | Flux ([4]; Gel 14:1, pH 7): 15.24 μg cm^−2 h^−1 | % applied dose ([4]; Gel 14:1, pH 9): 3.7% | Release Rate ([4]; Gel 14:1, pH 9): 43.389 μg cm^−2 h^0.5 | Flux ([4]; Gel 14:1, pH 9): 9.61 μg cm^−2 h^−1 | Q24 ([4]; Gel 14:1, prototype 40:40:20 mix, pH 7, 24 h): 365.65 μg cm^−2 | Q24 ([4]; Gel 14:1, prototype 40:40:20 mix, pH 9, 24 h): 230.69 μg cm^−2 | Release date ([4]; HPC Formulation): 2673 μg cm^−2 h^0.5 | Q24 ([4]; HPC Formulation (revised 50:40:10 gel, 8% HPC, pH 5, 14:1)): 9085 μg cm^−2 | Flux ([4]; HPC Formulation): 388 μg cm^−2 h^−1 | Release date ([4]; Ultrez Formulation): 1027 μg cm^−2 h^0.5 | Q24 ([4]; Ultrez Formulation (revised 50:40:10 gel, […] Ultrez, pH 5, 14:1)): 6128 μg cm^−2 | Flux ([4]; Ultrez Formulation): 248 μg cm^−2 h^−1 | reduction of release rate, 1:1 Gel versus 1:14 Gel ([4]; pH 7): 10.8 fold

C[C@H]1O[C@@H](O[C@H]2[C@@H](O)C[C@H](O[C@H]3[C@@H](O)C[C@H](O[C@H]4CC[C@@]5(C)[C@H](CC[C@@H]6[C@@H]5CC[C@]5(C)[C@@H](C7=CC(=O)OC7)CC[C@]65O)C4)O[C@@H]3C)O[C@@H]2C)C[C@H](O)[C@@H]1O [Digitoxin]
ID50 ([3]; Digoxin, Digitoxin from powder 250 μg per ml in 70% ethanol, IV Lanoxin in 10% ethanol, virus not named at this place): 30 ng per ml | ICVT activity [3]: potent ICVT activity | comparative ‘ICVT-ivities’ ([3]; saturated solutions in 90% ethanol compared with Lanoxin, virus not named at this place): more effective than Digoxin | HSV yield [5]: HSV yield reduced

CCCCNC(=O)NS(=O)(=O)c1ccc(C)cc1 [Tolbutamide]
ICVT activity [3]: only ‘borderline’ CVI activity | HSV yield reduced to zero ([5]; Solvent: PEG): HSV yield reduced to zero 300 μg/ml | HSV yield reduced to zero ([5]; Solvent: PG): HSV yield reduced to zero 300 μg/ml

CC(=O)Nc1nnc(S(N)(=O)=O)s1 [Acetazolamide]
ICVT activity [3]: only ‘borderline’ CVI activity

Cc1cccc(Nc2ccncc2S(=O)(=O)NC(=O)NC(C)C)c1 [Torasemide]
HSV yield [5]: HSV yield unaffected at 90 μg/ml

C[C@@H]1O[C@@H](O[C@H]2C[C@@H](O)[C@]3(CO)[C@H]4[C@H](O)C[C@]5(C)[C@@H](C6=CC(=O)OC6)CC[C@]5(O)[C@@H]4CC[C@]3(O)C2)[C@H](O)[C@H](O)[C@H]1O [Strophanthin G]
HSV yield [5]: HSV yield reduced Borderline

CCCCNc1cc(C(=O)O)cc(S(N)(=O)=O)c1Oc1ccccc1 [Bumetanide]
HSV yield [5]: HSV yield reduced Borderline

NS(=O)(=O)c1cc2c(cc1Cl)NCNS2(=O)=O [Hydrochiorothiazide, Hydrochlorothiazide]
ICVT activity [3]: only ‘borderline’ CVI activity | HSV yield reduced to zero at ([5]; Solvent: NaOH 1% aqueous): HSV yield reduced to zero at 600 ug/ml
